Results reported in patent US20090088380A1, “GHRH ANALOGS AND THERAPEUTIC USES THEREOF” (priority 2007, published 2009).
Non-standard residues stand in square brackets, D forms with d. Residues, ends and D or L forms follow the SMILES beside them.

Experiments:
[1] = test system: malnourished subjects with CKD; assay: Phase II CKD: abnormal and clinically significant haematology values; assay type: in vivo, human
From the text: The number of subjects with abnormal and clinically significant laboratory values at baseline and at Day 28 is presented in Table 35 (haematology) and Table 36 clinical chemistry. Overall, the number of subjects with abnormal and clinically significant laboratory values was similar in the GHRH(1-29)NH2 synthetic analog and placebo groups. No clear trends were observed.

[2] = test system: malnourished subjects with CKD; assay: Phase II CKD: 24-h urinary electrolytes; assay type: in vivo, human; details: for Calcium excretion: mean (SD) / Calcium/Creatinine ratio: median / EER Calcium: mean (SD) / EER Chloride: mean (SD) / EER Phosphate: mean (SD) / EER Potassium: mean (SD) / EER Sodium: mean (SD) / EFER Calcium: mean (SD) / EFER Chloride: mean (SD) / EFER Phosphate: mean (SD) / EFER Potassium: mean (SD) / EFER Sodium: mean (SD) / Fractional Pi reabsorption rate Pi/GFR: mean (SD) / Sodium excretion: mean (SD): ITT population
Procedure: Subjects collected 24-hour urine samples at screening, baseline (Days 0 to 1) and Days 28 to 29. All of the samples were analysed for creatinine and urea clearance (mL/min). The samples collected at baseline and on Day 28 were also analysed for proteinuria (Coumassie method), PNA, sodium, potassium, chloride, calcium and phosphate. GFR was calculated using the Cockcroft-Gault formula: Electrolyte excretion rates were calculated as follows: ? [formula] Electrolyte fractional excretion rates were calculated as follows: [formula]

[3] = GHRH vs placebo, changes from baseline to Day 28
[4] = GHRH vs placebo, ANCOVA, assuming log-normal distribution

For `CC[C@H](C)[C@H](NC(=O)[C@H](C)NC(=O)[C@H](CC(=O)O)NC(=O)[C@@H](C)NC(=O)[C@@H](N)Cc1ccc(O)cc1)C(=O)N[C@@H](Cc1ccccc1)C(=O)N[C@H](C(=O)N[C@@H](CC(N)=O)C(=O)N[C@@H](CO)C(=O)N[C@H](Cc1ccc(O)cc1)C(=O)N[C@@H](CCCNC(=N)N)C(=O)N[C@@H](CCCCN)C(=O)N[C@H](C(=O)N[C@@H](CC(C)C)C(=O)N[C@H](C)C(=O)N[C@@H](CCC(N)=O)C(=O)N[C@@H](CC(C)C)C(=O)N[C@@H](CO)C(=O)N[C@@H](C)C(=O)N[C@@H](CCCNC(=N)N)C(=O)N[C@@H](CCCCN)C(=O)N[C@@H](CCCCN)C(=O)N[C@@H](CC(C)C)C(=O)N[C@@H](CCC(N)=O)C(=O)N[C@@H](CC(=O)O)C(=O)N[C@H](C(=O)N[C@@H](CCSC)C(=O)N[C@@H](CO)C(=O)N[C@@H](CCCNC(=N)N)C(N)=O)[C@@H](C)CC)C(C)C)[C@@H](C)O` [GHRH analog #5, [D-Ala^2, D-Tyr^10, D-Ala^15, Lys^22] hGHRH(1-29)-NH2] (H-Y[dA]DAIFTNS[dY]RKVL[dA]QLSARKKLQDIMSR-NH2), the “Subjects with abnormal and clinically significant Neutrophils (%)” value ([1]; Day 28, safety analysis set) was “(16.7%)”, the “Subjects with abnormal and clinically significant Platelet count (%)” value ([1]; Day 28, safety analysis set) was “(0.0%)” and the “Subjects with abnormal and clinically significant RBC (%)” value ([1]; Day 28, safety analysis set) was “(25.0%)”. For the same compound, the “Subjects with abnormal and clinically significant WBC (%)” value ([1]; Day 28, safety analysis set) was “(0.0%)”, the “Number of subjects with abnormal and clinically significant haematocrit” value ([1]; baseline) was 1 subject and the “Calcium excretion: mean (SD)” value ([2]; Baseline) was 0.988 (0.916) mmol/m^2/24 h. For the same compound, the “Calcium/Creatinine ratio: median” value ([2]; Baseline) was 0.145, the “EER Calcium: mean (SD)” value ([2]; Baseline) was 0.027 (0.027) mmol/kg/24 h and the “EER Chloride: mean (SD)” value ([2]; Baseline) was 2.213 (0.963) mmol/kg/24 h. For the same compound, the “EER Phosphate: mean (SD)” value ([2]; Baseline) was 0.328 (0.220) mmol/kg/24 h, the “EER Potassium: mean (SD)” value ([2]; Baseline) was 0.839 (0.332) mmol/kg/24 h and the “EER Sodium: mean (SD)” value ([2]; Baseline) was 2.428 (1.134) mmol/kg/24 h. The “EFER Calcium: mean (SD)” value ([2]; Baseline) was 1.933 (1.164) %, the “EFER Chloride: mean (SD)” value ([2]; Baseline) was 3.636 (1.945) % and the “EFER Phosphate: mean (SD)” value ([2]; Baseline) was 35.882 (14.172) %. The “EFER Potassium: mean (SD)” value ([2]; Baseline) was 28.325 (13.618) %, the “EFER Sodium: mean (SD)” value ([2]; Baseline) was 3.068 (1.658) % and the “Fractional Pi reabsorption rate Pi/GFR: mean (SD)” value ([2]; Baseline) was 0.861 (0.291) mmol/ml. The “Sodium excretion: mean (SD)” value ([2]; Baseline) was 89.90 (42.10) mmol/m^2/24 h, the “Calcium excretion: mean (SD)” value ([2]; Day 28) was 1.295 (1.231) mmol/m^2/24 h and the “Calcium/Creatinine ratio: median” value ([2]; Day 28) was 0.195. For the same compound, the “EER Calcium: mean (SD)” value ([2]; Day 28) was 0.036 (0.036) mmol/kg/24 h, the “EER Chloride: mean (SD)” value ([2]; Day 28) was 2.277 (1.028) mmol/kg/24 h and the “EER Phosphate: mean (SD)” value ([2]; Day 28) was 0.273 (0.129) mmol/kg/24 h. For the same compound, the “EER Potassium: mean (SD)” value ([2]; Day 28) was 0.656 (0.315) mmol/kg/24 h, the “EER Sodium: mean (SD)” value ([2]; Day 28) was 2.624 (1.020) mmol/kg/24 h and the “EFER Calcium: mean (SD)” value ([2]; Day 28) was 2.743 (2.157) %. For the same compound, the “EFER Chloride: mean (SD)” value ([2]; Day 28) was 4.156 (2.541) %, the “EFER Phosphate: mean (SD)” value ([2]; Day 28) was 35.968 (12.979) % and the “EFER Potassium: mean (SD)” value ([2]; Day 28) was 26.766 (18.120) %. For the same compound, the “EFER Sodium: mean (SD)” value ([2]; Day 28) was 3.359 (1.156) %, the “Fractional Pi reabsorption rate Pi/GFR: mean (SD)” value ([2]; Day 28) was 0.829 (0.211) mmol/ml and the “Sodium excretion: mean (SD)” value ([2]; Day 28) was 96.70 (37.30) mmol/m^2/24 h. For the same compound, the “Calcium excretion: adjusted difference” value [2, 3] was −0.10 mmol/m^2/24 h, the “EER Calcium: adjusted difference” value [2, 3] was −0.002 mmol/kg/24 h and the “EER Chloride: adjusted difference” value [2, 3] was −0.136 mmol/kg/24 h. The “EER Phosphate: adjusted difference” value [2, 3] was 0.020 mmol/kg/24 h, the “EER Potassium: adjusted difference” value [2, 3] was −0.086 mmol/kg/24 h and the “EER Sodium: adjusted difference” value [2, 3] was −0.020 mmol/kg/24 h. For the same compound, the “EFER Calcium: adjusted difference” value [2, 3] was −0.48%, the “EFER Chloride: adjusted difference” value [2, 3] was −1.13% and the “EFER Phosphate: adjusted difference” value [2, 3] was −3.64%. The “EFER Potassium: adjusted difference” value [2, 3] was −7.93%, the “Fractional Pi reabsorption rate Pi/GFR: adjusted difference” value [2, 3] was -0.00006 mmol/mL and the “Sodium excretion: adjusted difference” value [2, 3] was −1.18 mmol/m^2/24 h. The “Calcium/Creatinine ratio: ratio (ratio of means)” value [2, 4] was 0.82, the “EFER Sodium: ratio (ratio of means)” value [2, 4] was 0.79 and the “Calcium excretion: mean difference between groups” value ([2]; in vivo) was −0.10 mmol/m^2/24 h. For the same compound, the “Calcium:creatinine ratio: ratio of means” value ([2]; in vivo) was 0.82, the “EER chloride: mean difference between groups” value ([2]; in vivo) was −0.136 mmol/kg/24 h and the “EER phosphate: mean difference between groups” value ([2]; in vivo) was 0.020 mmol/kg/24 h. The “EER potassium: mean difference between groups” value ([2]; in vivo) was −0.086 mmol/kg/24 h, the “EER sodium: mean difference between groups” value ([2]; in vivo) was −0.020 mmol/kg/24 h and the “EFER chloride: mean difference between groups” value ([2]; in vivo) was −1.13%. The “EFER phosphate: mean difference between groups” value ([2]; in vivo) was −3.64%, the “EFER potassium: mean difference between groups” value ([2]; in vivo) was −7.93% and the “EFER sodium: ratio of means” value ([2]; in vivo) was 0.79. The “Electrolyte excretion rate (EER) calcium: mean difference between groups in change baseline to Day 28” value ([2]; in vivo) was −0.002 mmol/kg/24 h, the “Electrolyte fractional excretion rate (EFER) calcium: mean difference between groups” value ([2]; in vivo) was −0.48% and the “Fractional Pi reabsorption rate (Pi/GFR): mean difference between groups” value ([2]; in vivo) was -0.000059 mmol/mL. The “Sodium excretion: mean difference between groups” value ([2]; in vivo) was −1.18 mmol/m^2/24 h and the “Fractional Pi reabsorption rate (Pi/GFR): mean difference between groups” value ([2]; in vivo, listed as GHRH(1-29)NH2 synthetic analog) was -0.00006 mmol/mL.
